Experimental findings from ChEMBL document CHEMBL1221220, “Transport and signaling via the amino acid binding site of the yeast Gap1 amino acid transceptor” (Nat Chem Biol, 2009) are described below.

Assay [1] deals with T1, General amino-acid permease GAP1 (Saccharomyces cerevisiae), P19145 [I382C].
T1 sequence (whole entry): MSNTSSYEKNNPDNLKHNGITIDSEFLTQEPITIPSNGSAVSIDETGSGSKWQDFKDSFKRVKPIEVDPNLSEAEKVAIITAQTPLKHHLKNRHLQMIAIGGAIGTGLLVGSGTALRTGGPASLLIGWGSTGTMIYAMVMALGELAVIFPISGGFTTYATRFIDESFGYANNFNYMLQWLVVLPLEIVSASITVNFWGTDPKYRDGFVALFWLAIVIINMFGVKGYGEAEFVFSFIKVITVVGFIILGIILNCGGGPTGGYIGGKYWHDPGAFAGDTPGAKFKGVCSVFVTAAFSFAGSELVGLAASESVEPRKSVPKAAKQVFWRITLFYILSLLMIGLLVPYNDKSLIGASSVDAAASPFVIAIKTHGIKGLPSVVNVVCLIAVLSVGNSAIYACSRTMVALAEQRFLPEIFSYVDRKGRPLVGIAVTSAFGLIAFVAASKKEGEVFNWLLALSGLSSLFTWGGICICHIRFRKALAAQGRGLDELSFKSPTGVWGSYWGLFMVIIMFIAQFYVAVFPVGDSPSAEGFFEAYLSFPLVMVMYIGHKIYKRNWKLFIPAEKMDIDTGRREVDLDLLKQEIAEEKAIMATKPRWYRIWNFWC
In words: Activation of yeast Gap1 I382C mutant-mediated amino acid uptake at 10 mM.

Assay [2] has as its system T2, General amino-acid permease GAP1 (Saccharomyces cerevisiae), P19145 [V381C].
T2 sequence (whole entry): T1 sequence (whole entry) with V381C, C382I
Nature of the assay: Induction of yeast Gap1 V381C mutant-mediated trehalose activation at 2 mM in presence of 10 mM MTSEA treated before compound addition.

The test system of assay [3] is T3, General amino-acid permease GAP1 (Saccharomyces cerevisiae), P19145 [M401C].
T3 sequence (whole entry): T1 sequence (whole entry) with C382I, M401C
In words: Induction of yeast Gap1 M401C mutant-mediated amino acid uptake at 2 mM in presence of 10 mM MTSEA treated before compound addition.

Assay [4] deals with T4, General amino-acid permease GAP1 (Saccharomyces cerevisiae), P19145 [I384C].
T4 sequence (whole entry): T1 sequence (whole entry) with C382I, I384C
Nature of the assay: Induction of yeast Gap1 I384C mutant-mediated trehalose activation at 2 mM in presence of 10 mM MTSEA treated before compound addition.

Changes are numbered by the printed parent chain. Calls of active or inactive are those of the source. The calls are words filed in the database; no cut-off is given here.

On to `NC(=O)NCCC[C@H](N)C(=O)O`, for which the result in assay [1] was inactive. In addition, the inhibition result in assay [2] and in assay [4] was “Active” in each case. For the same molecule, the outcome in assay [3] was Active.
